Measurements taken from patent US6583127B1, “Use of etherlysophospholipids as antiinflammatory agents” (Inkeysa. SA, priority 1998, dated 2003).
Where two headings read alike, the source gives them in different places.

What was measured:
[1] = test system: PGE2 synthesis in human mucosal gastric biopsies; test: Ex vivo PGE2 synthesis in human mucosal gastric biopsies
Procedure: The ability of the gastric mucosa to generate prostaglandins estimates total cyclooxygenase (COX) activity (COX-1 plus any COX-2). To measure ex vivo prostaglandin E2 (PGE2) synthesis, normal gastric mucosal biopsies were immediately placed in Ependorff tubes containing phosphate-buffered saline (PBS). […] Each mucosal gastric biopsy was cut into different pieces (about 1 mg weight) that were subsequently weighed and incubated in the absence or in the presence of the distinct agents indicated in the corresponding Table for 20 min at 37° C. in 200 μl Hepes-glucose buffer. Then cells were mucosal gastric samples were pelleted by centrifugation, lysed and intracellular PGE2 was measured using an enzyme immunoassay kit (Amersham Pharmacia Biotech, Buckinghamshire, UK) following the manufacturer's instructions. Prostaglandin synthesis is expressed as picograms of PGE2 synthesised per mg of tissue incubation. Each experiment corresponded to the use of one biopsy, in order to avoid variability among different biopsies. Normal volunteers without a previous pharmacological treatment were selected for these assays. The normal gastroduodenal mucosa was visually assessed by endoscopy.
Human mucosal gastric biopsies were cut into about 1 mg pieces, incubated with the indicted agents (10 μM) for 20 min at 37° C. in Hepes-glucose buffer, and then the intracellular content of PGE2 was determined as described in the Methods section. Untreated control samples were run in parallel. Data are shown as mean Values+S.D. from three independent experiments.

CD44 = test: Cell surface expression of CD44 in human neutrophils (immunofluorescence flow cytometry); format: cell-based; conditions: Medium = 100
Source text: (§1) Isolation and treatment of neutrophils.
(§2) Monoclonal antibodies. […] The antibodies are commercially available.
(§3) Immunofluorescence flow cytometry. […] Results were expressed as relative MFI (rMFI), such that
(§4) rMFI=(MFIagent×100)/MFImedium
(§5) Background fluorescence was substracted from all values.

HLA = conditions: human neutrophils, Medium = 100
Procedure: Isolation and treatment of neutrophils. Human neutrophils were obtained from fresh peripheral blood by dextran sedimentation and centrifugation on Ficoll-Hypaque followed by hypotonic lysis of residual erythrocytes. […] Cells were resuspended at 3×10^6 neutrophils/ml in HEPES/glucose buffer (150 mM NaCl, 5 mM KCl, 10 mM HEPES, 1.2 mM MgCl2, 1.3 mM CaCl2, 5.5 mM glucose, pH 7.5), and incubated in the absence or presence of distinct agents at 37° C. for the times indicated in the respective legends to figures. Subsequently, cells were pelleted by centrifugation and saved to determine the content of different cell surface antigens by flow cytometry.
Monoclonal antibodies. The following monoclonal antibodies were used: TS1/11 anti-CD11a, Bear-1 anti-CD11b, TP1/36.1 anti-CD43, HP2/9 anti-CD44, Leu-8 anti-L-selectin, and W6/32, specific for a monomorphic determinant on HLA-A, B molecules. P3X63 myeloma culture supernatant was used as a negative control. The antibodies are commercially available.
Immunofluorescence flow cytometry. Immunofluorescence flow cytometry analysis was performed in a FACStar-Plus and a FACScan flow cytometers (Becton-Dickinson). Neutrophils were incubated at 4° C. with the corresponding monoclonal antibody followed by washing and labelling with a fluorescein isothiocyanate (FITC)-labelled-goat anti-mouse IgG antibody (DAKO, Glostrup, Denmark). Mean fluorescence intensity (MFI) in linear scale was obtained from at least 7000 cells in each sample, and the fluorescence produced by the myeloma P3X63 supernatant was considered as background. Results were expressed as relative MFI (rMFI), such that
as §4, §5

phospholipase A2 (PLA2) = test: [3H]arachidonic acid release as assay for PLA2 activity; format: cell-based; conditions: FIG. 10
Procedure: Measurement of arachidonic acid release. Arachidonic acid release was measured as an assay for phospholipase A2 (PLA2) activity, because this enzyme activity constitutes the major pathway controlling arachidonic acid release. Cells (5×10^5/ml) were labeled overnight with 0.1 μCi of [^3H]arachidonic acid/ml in RPMI-1640 culture medium containing 10% fetal calf serum. Then cells were washed four times with culture medium, and cells were resuspended in […] culture medium in the absence of serum in the absence (control) or in the presence of distinct agents for the times indicated in the respective figures. After this period, cells were pelleted by centrifugation and supernatants were transferred to scintillation vials and counted for radioactivity. Results are shown as cpm of labelled arachidonic acid released to the extracellular medium.

CD11a = test: Cell surface expression of CD11a in human neutrophils (immunofluorescence flow cytometry); format: cell-based; conditions: Medium = 100
Source text: as §1, §2, §3, §4, §5

[2] = test system: experimental colitis induced by TNB (2,4,6-trinitrobenzenesulphonic acid); test: Rat model of experimental colitis induced by TNB, macroscopic evaluation; format: in vivo; design: Wet Weight (colon): unit not given beside the values; conditions: Wistar rat; for Wet Weight (colon) / Sample 2 × 6 mm / Score (0-10) / Weight/mm: Mean ± SEM
Procedure: The therapeutic potential for the treatment of ulcerative colitis of IEC01 at 2.5 and 5 mg/kg and IES01 at 2.5 mg/kg, was evaluated after their administration by oral route during 14 days (7 days of preventive treatment and 7 days of therapeutic treatment) using the rat model of experimental colitis induced by TNB (2,4,6-trinitrobenzenesulphonic acid). As reference parameters, the body weight, wet colon weight and score macroscopic evaluation were evaluated after 24 hours and after 7 days of the intraluminal administration of TNB in the colon. […] The inflammatory response is recognised by the presence of ulcerative fissures, faecal shatters and inflammation of bowel wall. A chronic inflammatory response was observed 7 days after the administration. An erratic response with lineal or punctual ulcers, necrosis, faecal shatters, reduction of colonic lumen, granulomas and peritoneal adherence was observed.

[3] = 2.5 mg/Kg p.o., after 24 hours of intraluminal administration
[4] = 2.5 mg/Kg p.o., after 7 days of intraluminal administration
[5] = 5.0 mg/Kg p.o., after 24 hours of intraluminal administration
[6] = 5.0 mg/Kg p.o., after 7 days of intraluminal administration

`CCCCCCCCCCCCCCCCCCOCC(COP(=O)([O-])OCC[N+](C)(C)C)OC` (centres unmarked) [IEC01, Edelfosine] was tested, and the “pg PGE2/mg (weight)” value ([1]; human mucosal gastric biopsies, agents 10 μM, 20 min at 37° C., Control 115 ± 26, mean ± S.D., three experiments) was 131 ± 29 pg PGE2/mg, the “effect on mucosal PGE2 synthesis (in words)” value ([1]; normal mucosal gastric biopsies, ex vivo) was “did not inhibit” and the “CD44 cell surface expression (rMFI)” value (CD44; 10 ng/ml) was 97 ± 2. For the same compound, the “CD44 cell surface expression (rMFI)” value (CD44; 100 ng/ml) was 84 ± 4, the “CD44 cell surface expression (rMFI)” value (CD44; 500 ng/ml) was 75 ± 7 and the “CD44 cell surface expression (rMFI)” value (CD44; 1 μg/ml) was 48 ± 9. For the same compound, the “CD44 cell surface expression (rMFI)” value (CD44; 5 μg/ml) was 40 ± 8, the “HLA cell surface expression (rMFI)” value (HLA; 10 ng/ml) was 101 ± 5 and the “HLA cell surface expression (rMFI)” value (HLA; 100 ng/ml) was 100 ± 4. The “HLA cell surface expression (rMFI)” value (HLA; 500 ng/ml) was 99 ± 5, the “HLA cell surface expression (rMFI)” value (HLA; 1 μg/ml) was 102 ± 6 and the “HLA cell surface expression (rMFI)” value (HLA; 5 μg/ml) was 101 ± 5. The “PLA2 activity, as measured by [3H]arachidonic acid release” value (phospholipase A2 (PLA2)) was “able to stimulate”, the “CD11a cell surface expression (rMFI)” value (CD11a; 10 ng/ml) was 99 ± 3 and the “CD11a cell surface expression (rMFI)” value (CD11a; 100 ng/ml) was 102 ± 5. For the same compound, the “CD11a cell surface expression (rMFI)” value (CD11a; 500 ng/ml) was 97 ± 8, the “CD11a cell surface expression (rMFI)” value (CD11a; 1 μg/ml) was 101 ± 6 and the “CD11a cell surface expression (rMFI)” value (CD11a; 5 μg/ml) was 96 ± 5. The “% (inhibition, Sample 2 × 6 mm)” value [2, 3] was 14.7%, the “% (inhibition, Score)” value [2, 3] was 8.6% and the “% (inhibition, Weight/mm)” value [2, 3] was 35.2%. The “% (inhibition, Wet Weight)” value [2, 3] was 35.1%, the “Wet Weight (colon)” value ([2]; 2.5 mg/Kg p.o., after 24 hours of intraluminal administration in the colon) was 1.689 ± 0.15 and the “Sample 2 × 6 mm” value [2, 3] was 373.12 ± 48.12 mg. The “Score (0-10)” value [2, 3] was 5.2 ± 0.73, the Weight/mm [2, 3] was 0.187 ± 0.02 and the “% (inhibition, Sample 2 × 6 mm)” value [2, 4] was 17.9%. For the same compound, the “% (inhibition, Weight/mm)” value [2, 4] was 13.3%, the “% (inhibition, Wet Weight)” value [2, 4] was 13.4% and the “Wet Weight (colon)” value ([2]; 2.5 mg/Kg p.o., after 7 days of intraluminal administration in the colon) was 1.354 ± 0.14. For the same compound, the “% (inhibition, Score)” value ([2]; 2.5 mg/Kg p.o., after 7 days of intraluminal administration, 2.5 mg/kg) was 78,6%, the “Sample 2 × 6 mm” value [2, 4] was 299.62 ± 75.58 mg and the “Score (0-10)” value [2, 4] was 1.2 ± 0.58. For the same compound, the Weight/mm [2, 4] was 0.150 ± 0.00, the “% (inhibition, Sample 2 × 6 mm)” value [2, 5] was 61.7% and the “% (inhibition, Score)” value [2, 5] was 42.9%. The “% (inhibition, Weight/mm)” value [2, 5] was 77.3%, the “% (inhibition, Wet Weight)” value [2, 5] was 77.4% and the “Wet Weight (colon)” value ([2]; 5.0 mg/Kg p.o., after 24 hours of intraluminal administration in the colon) was 1.412 ± 0.06. The “Sample 2 × 6 mm” value [2, 5] was 301.10 ± 18.95 mg, the “Score (0-10)” value [2, 5] was 4.0 ± 0.32 and the Weight/mm [2, 5] was 0.157 ± 0.00. The “% (inhibition, Sample 2 × 6 mm)” value [2, 6] was 71.4%, the “% (inhibition, Weight/mm)” value [2, 6] was 63.0% and the “% (inhibition, Wet Weight)” value [2, 6] was 63.0%. For the same compound, the “Wet Weight (colon)” value ([2]; 5.0 mg/Kg p.o., after 7 days of intraluminal administration in the colon) was 1.113 ± 0.14, the “% (inhibition, Score)” value ([2]; 5.0 mg/Kg p.o., after 7 days of intraluminal administration, 5 mg/kg) was 71,4% and the “Sample 2 × 6 mm” value [2, 6] was 272.14 ± 53.65 mg. The “Score (0-10)” value [2, 6] was 1.4 ± 0.40 and the Weight/mm [2, 6] was 0.124 ± 0.01.
